# Results from patent US9623226B2, “Device for efficient delivery of compounds to or through the skin or biological barriers, using light-absorbing thin films” (Universidade de Coimbra, priority 2011, dated 2017).
# How the values were obtained:
# skin of a minipig = assay: In vivo transdermal delivery on the back of minipigs, passive and active (photoacoustic device); settings: device of Example 1, 12 laser shots at 355 nm, 10 mJ per pulse
# From the text: In vivo and in vitro tests employed four minipigs obtained from IMIDHA (Instituto Madrileño de Investigación y Desarrollo Rural, Agrario y Alimentario)—Aranjuez (Madrid). They were all females, aged 6-8 months, white with brown spots, average weight 56.8 kg (66.2, 57.1, 43.5, 60.6 kg). They were received at Estação Zootécnica Nacional, Vale de Santarém, where they were accommodated in individual boxes with 1.5 m^2, feed with a standard diet for pigs and water ad libidum, for an acclimation period of three weeks. The study was performed in accordance to the Portuguese ethical guidelines on a license granted by Dircção de Serviços de Saúde o Protecção Animal, ref. 0420/000/000/2007. Access to food was suspended 24 h hours before treatment. The backs of the animals were shaved 24 h prior to the in vivo application of the dermatological formulations. […]
# (§1) The skin samples collected after the experiments were analyzed by microscopy to evaluate the penetration depth of the desired compounds, or followed an extraction procedure to evaluate their amounts under the skin. The evaluation of the penetration depth by fluorescence microscopy or by confocal microscopy requires tissue fixation. […] The skin slices were collected in microscope slides and kept refrigerated until they were analyzed by fluorescence microscopy and confocal microscopy. […]
# [1] = In vitro transdermal delivery through minipig skin samples, passive versus active (photoacoustic device); type: in vitro ADME; settings: extraction with dichloromethane and fluorescence, confirming fluorescence microscopy; high-impulse broadband pressure wave versus passive
# Description: Skin sections were cut from the back of the minipigs after they had been sacrificed. These skin sections were frozen and kept at −18° C. until use in in vitro tests. Before each in vitro test, the required amount of minipig skin was slowly brought to room temperature. All the tests were carried out at room temperature.
# as §1, with “fixation. The first step in the fixation was immersion in paraformaldehyde (4% in aqueous solution) for at least 24 h. Next, the samples were transferred to a 25% sucrose solution for at least 48 h.” for “fixation.”
# In order to evaluate the quantities of the F2TPPMet delivered under the skin a specific method was developed. […] Fluorescence calibration curves of the pharmacological excipient delivered in the skin were performed in the extractor solvent to validate the methodology used. Finally, the mass delivered onto the skin is determined for each essay substituting its fluorescence in the calibration curve. […]
substance,measurement,setting,value
"5,10,15,20-tetrakis(2,6-fluoro-3-N-methylsulfamoylphenyl)porphyrin [F2TPPMet]",state of the stratum corneum after active transdermal delivery,skin of a minipig; 20 minutes incubation,stratum corneum remained intact
same,distribution in the skin by fluorescence microscopy after active transdermal delivery,"skin of a minipig; ca 1 cm^2, 20 minutes incubation",distributed over all the epidermis
same,"quantity of F2TPPMet delivered to the skin, active versus passive transdermal delivery",[1],increase in the quantity of F2TPPMet delivered to the skin
